The values below come from ChEMBL document CHEMBL1201862, “PubChem BioAssay data set” (2004).

Among the test systems are A549; DU-145; HCT-116; HT-29; MDA-MB-435; MDA-N; MOLT-4; Malme-3M; NCI-H460; NCI/ADR-RES; RPMI-8226; RXF 393; SF-268; SF-539; SK-MEL-2; SK-OV-3; SN12C; U-251; UACC-257; UO-31.
Common to all, as to assay: NCI anticancer screen, dose series, 48 h

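Values below derive from 48-hour exposures of cells grown in 96-well plates, with endpoints linearly interpolated between the two concentrations bracketing the appropriate inhibition level. GI50: concentration for 50% inhibition of growth.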 Active and inactive are the calls of the source. Cut-off read from the data, not from the text of the source: active = GI50 up to about 1.1 µM and inactive = higher. Where only a bound is given, the exact number is not on record here.

In the case of `CC1=NN(c2nc(N)nc(/C(C#N)=C/c3ccccc3O)n2)C(C)(C)C1`, the GI50 in the test with A549 is 15.9 µM (inactive); in the test with DU-145, 15.4 µM (inactive); in the test with HCT-116 it was 18.3 µM (inactive); with HT-29 it was 19.8 µM (inactive); in the test on MDA-MB-435, 17.3 µM (inactive); with MDA-N, 15.3 µM (inactive). The GI50 was 30.4 µM (inactive) in the test on MOLT-4; 18.7 µM (inactive) in the test with Malme-3M; 19.4 µM (inactive) in the test on NCI-H460; 21.4 µM (inactive) in the test on NCI/ADR-RES; 17 µM (inactive) in the test with RPMI-8226; 20.2 µM (inactive) in the test on RXF 393. In addition, the GI50 in the test with SF-268 was 18.2 µM (inactive); with SF-539, 16.9 µM (inactive); in the test with SK-MEL-2, 22.2 µM (inactive); with SK-OV-3, 23.1 µM (inactive); in the test on SN12C, 25.5 µM (inactive); with U-251, 18.4 µM (inactive). The results for the GI50 in the test with UACC-257 and in the test with UO-31 were 18.9 µM (inactive) and 18.8 µM (inactive), respectively.

As for `CC(NNC(=O)c1ccncc1)c1ccc(Cl)cc1Cl` (stereo not given), the GI50 with A549, in the test with DU-145, in the test with HCT-116, in the test on HT-29, with MDA-MB-435 and in the test with MDA-N was > 100 µM (inactive) in each case. In addition, the GI50 was 83.8 µM (inactive) in the test on MOLT-4; > 100 µM (inactive) with Malme-3M; 51.2 µM (inactive) in the test on NCI-H460; 93.8 µM (inactive) in the test on NCI/ADR-RES; 77.8 µM (inactive) in the test with RPMI-8226; > 100 µM (inactive) in the test with RXF 393. The GI50 with SF-268, in the test on SF-539, in the test with SK-MEL-2, in the test on SK-OV-3, in the test on SN12C and in the test on U-251 was > 100 µM (inactive) throughout. For the same compound, the GI50 with UACC-257 was > 100 µM (inactive); in the test on UO-31 it was 38.9 µM (inactive).

For `FC(F)(F)C1(C(F)(F)F)O[Si]2(OC(C(F)(F)F)(C(F)(F)F)c3ccccc32)c2ccccc21`, the GI50 in the test on A549 is 13.5 µM (inactive); in the test on DU-145 it was 15.4 µM (inactive); in the test with HCT-116, 5.45 µM (inactive); in the test on HT-29, 7.62 µM (inactive); with MDA-MB-435, 11.3 µM (inactive); in the test with MDA-N, 13.4 µM (inactive). The GI50 in the test with MOLT-4 was 14.4 µM (inactive); in the test with Malme-3M, 9.46 µM (inactive); in the test on NCI-H460, 5.98 µM (inactive); in the test on NCI/ADR-RES, 6.58 µM (inactive); in the test on RPMI-8226, 17.2 µM (inactive); with RXF 393, 13.6 µM (inactive). The GI50 in the test with SF-268 is 15.6 µM (inactive); in the test on SF-539 it was 10.2 µM (inactive); in the test with SK-MEL-2 it was 7.66 µM (inactive); in the test with SK-OV-3, 15.8 µM (inactive); with SN12C, 9.02 µM (inactive); with U-251, 3.95 µM (inactive). The values for the GI50 with UACC-257 and in the test on UO-31 were 18 µM (inactive) and 9.12 µM (inactive), respectively.

In the case of `Nc1ncnc2c1nc(Cl)n2C1OC2COP(=O)(O)OC2C1O` (stereo not given), the GI50 with A549 is 23.3 µM (inactive); in the test on DU-145 it was 6.67 µM (inactive); in the test on HCT-116, 3.09 µM (inactive); in the test with HT-29 it was 4.57 µM (inactive); with MDA-MB-435, 7.82 µM (inactive); in the test on MDA-N, 6.43 µM (inactive). In addition, the GI50 with MOLT-4 was 2.81 µM (inactive); in the test on Malme-3M, 37 µM (inactive); with NCI-H460, 4 µM (inactive); in the test on NCI/ADR-RES it was 8.39 µM (inactive); with RPMI-8226, 5.53 µM (inactive); with RXF 393 it was 3.15 µM (inactive). Besides, the GI50 is > 51.8 µM (inactive) in the test with SF-268; 26.8 µM (inactive) with SF-539; > 100 µM (inactive) with SK-MEL-2; 3.01 µM (inactive) with SK-OV-3; 12 µM (inactive) in the test with SN12C; 50.6 µM (inactive) with U-251. The GI50 is 18.9 µM (inactive) in the test with UACC-257 and 5.87 µM (inactive) with UO-31.

As for `CN(CC(=O)O)c1ncc2c(n1)C=CCC2`, the GI50 in the test on A549, in the test with DU-145, in the test with HCT-116, with HT-29, in the test on MDA-MB-435 and in the test on MDA-N was > 100 µM (inactive) throughout. Besides, the GI50 in the test with MOLT-4, with Malme-3M, in the test on NCI-H460, with NCI/ADR-RES, with RPMI-8226 and with RXF 393 was > 100 µM (inactive) throughout. The GI50 in the test on SF-268, in the test with SF-539, in the test with SK-MEL-2, in the test on SK-OV-3, in the test on SN12C and in the test with U-251 was > 100 µM (inactive) throughout. In addition, the GI50 with UACC-257 and with UO-31 was > 100 µM (inactive) in each case.

With `O=[N+]([O-])c1cc(-c2nnc(C34CC5CC(CC(C5)C3)C4)o2)cc([N+](=O)[O-])c1`, the GI50 in the test with A549 is 48.1 µM (inactive); in the test on DU-145, 33 µM (inactive); in the test on HCT-116, 12.3 µM (inactive); with HT-29, 6.41 µM (inactive); in the test on MDA-MB-435, 19.1 µM (inactive); with MDA-N, 24.4 µM (inactive). Besides, the GI50 was > 100 µM (inactive) in the test on MOLT-4; 64.4 µM (inactive) with Malme-3M; 32.4 µM (inactive) in the test on NCI-H460; > 100 µM (inactive) in the test on NCI/ADR-RES; 82.2 µM (inactive) in the test on RPMI-8226; > 100 µM (inactive) with RXF 393. In addition, the GI50 in the test on SF-268 was 86.1 µM (inactive); with SF-539, > 100 µM (inactive); with SK-MEL-2, 63.4 µM (inactive); with SK-OV-3, > 100 µM (inactive); in the test on SN12C it was 90.8 µM (inactive); in the test on U-251, 45.5 µM (inactive). Moreover, the GI50 is 83.4 µM (inactive) in the test on UACC-257 and > 100 µM (inactive) in the test on UO-31.

Take `CCC(C)C(=O)O[C@H]1C(=O)O[C@@H]2C[C@H]3C(C)=CC(=O)[C@@H](O)[C@]3(C)[C@H]3[C@@H](O)[C@H](O)[C@@]4(C)OC[C@]32[C@@H]14` (stereo not given in full): the GI50 is 0.141 µM (active) in the test on A549; < 0.01 µM (active) in the test on DU-145; < 0.01 µM (active) in the test on HCT-116; < 0.0146 µM (active) in the test with HT-29; < 0.01 µM (active) in the test with MDA-MB-435; < 0.01 µM (active) with MDA-N. In addition, the GI50 is 0.0112 µM (active) in the test on MOLT-4; < 0.0152 µM (active) with Malme-3M; < 0.0135 µM (active) in the test with NCI-H460; < 0.0334 µM (active) in the test on NCI/ADR-RES; < 0.016 µM (active) in the test on RPMI-8226; 0.015 µM (active) in the test on RXF 393. Besides, the GI50 in the test on SF-268 is < 0.0164 µM (active); in the test on SF-539, < 0.0176 µM (active); in the test with SK-MEL-2, < 0.0252 µM (active); with SK-OV-3, 0.0832 µM (active); in the test on SN12C it was < 0.01 µM (active); with U-251 it was < 0.0171 µM (active). The GI50 in the test on UACC-257 was < 0.01 µM (active); with UO-31, < 0.0217 µM (active).

In the case of `CN(C)c1nc2n(CCO)c(-c3ccccc3)c(-c3ccccc3)nc-2c(=O)n1`, the GI50 with A549, with DU-145, with HCT-116, with HT-29, in the test with MDA-MB-435 and in the test on MDA-N was > 100 µM (inactive) throughout. Besides, the GI50 in the test with MOLT-4, with Malme-3M, in the test with NCI-H460, in the test with NCI/ADR-RES, in the test with RPMI-8226 and with RXF 393 was > 100 µM (inactive) each time. For the same compound, the GI50 in the test on SF-268, in the test with SF-539, in the test with SK-MEL-2, in the test on SK-OV-3, with SN12C and in the test with U-251 was > 100 µM (inactive) in each case. Besides, the GI50 in the test on UACC-257 and in the test with UO-31 was > 100 µM (inactive) each time.
